Tested on: 596521-263-R-J1-PDC complex spheroid growth
Assay: Anticancer human tumor 596521-263-R-J1-PDC patient-derived soft tissue sarcoma cell line growth inhibition [Asc]
Details: for IC50: curve of first compound; for viability, T/C: stronger effect = lower value
Protocol: Multicellular complex tumor spheroid response to apoptosis pathway targeting inhibitors Alrizomadlin, Pelcitoclax, and Dasminapant in combination with a variety of drugs and investigational agents in selected tumor cell lines
The MDM2 inhibitor alrizomadlin, the Bcl-2/Bcl-xL inhibitor pelcitoclax, and the IAPs inhibitor dasminapant were evaluated both individually and in combination with standard of care and investigational anticancer small molecules within a complex spheroid model of solid tumors. . Complex spheroids include a stromal component modeled by human endothelial cells (HUVEC) and fibroblasts modeled by human mesenchymal stem cells (MSCs). The concentration ranges selected for each drug and investigational agent were based upon clinically achievable concentrations if the clinical Cmax of the agent was known.
Compounds. The drugs and investigational agents: alrizomadlin (APG-115; NSC831270), pelcitoclax (APG-1252; NSC835773), dasminapant (APG-1387;NSC834197), TAK-243 (NSC785004), copanlisib (NSC809693), olaparib (NSC753686), talazoparib (NSC767125), cobimetinib (NSC 768068), eltanexor (KPT-8602, NSC 794443), abemaciclib (NSC 768073), sotorasib (NSC818433), adagrasib (NSC 831453), MRTX-1133 (NSC 836407), Iadademestat (ORY1001, NSC 806812), and RMC-4630 (NSC839698), were obtained from the NCI Developmental Therapeutics Program Chemical Repository. The FDA-approved anticancer drug set is available from the Developmental Therapeutics Program at https://dtp.cancer.gov/organization/dscb/obtaining/available plates.htm. […] The stock solutions were prepared in dimethyl sulfoxide (DMSO, Sigma-Aldrich, St. Louis, MO, cat. D2650) at 800-fold the tested concentration and stored at -70 degrees C prior to their use. All drugs and investigational agents were tested over a range starting from a high concentration at or near the clinical Cmax and decreasing in half-log increments. If the clinical Cmax for an agent had not been determined, the highest concentration tested was 10 microM.
The patient-derived cancer (PDC) cell lines include five colon adenocarcinomas: 186277-243-T-J2-PDC, 616215-338-R-J1-PDC, 439559-082-T-J2-PDC, 463943-066-T-J2-PDC, and 519858-162-T-J1-PDC; three pancreatic carcinomas: 323965-272-R-J2-PDC, 521955-158-R6-J3-PDC, and 521955-158-R2-J5-PDC; two uterine sarcomas: 327498-152-R-J2-PDC and 993429-296-R-J1-PDC; two rhabdomyosarcomas: 755483-174-R-J1-PDC and 772245-204-R-J1-PDC; two soft tissue sarcomas: 126254-015-R-J1-PDC and 494315-158-R-J1-PDC; two malignant fibrous histiocytomas: 317291-083-R-J1-PDC and 596521-263-R-J1-PDC; two breast carcinomas: 171881-019-R-J1-PDC and 885512-296-R-J2-PDC; and one ovarian carcinoma: 6556581-035-R-J-PDC were obtained from the NCI PDMR, (https://pdmr.cancer.gov). The established cell lines HSSY-2 synovial sarcoma (RRID:CVCL 8719), SYO-1 synovial sarcoma (RRID:CVCL_7146), MPNST malignant peripheral neural sheath tumor were obtained from the Sloan Kettering Institute. The following established cell lines were purchased from the American Type Culture Collection (ATCC, Manassas, VA), Sor the received from the NCI repository:, PANC-1 pancreatic carcinoma (CRL-1469, RRID:CVCL_0480), OVCAR-5 ovarian carcinoma (RRID:CVCL_1628), OVCAR-8 ovarian carcinoma (RRID:CVCL_1629), , MCF-7 breast carcinoma (CRL-12584, RRID:CVCL_0031), MDA-MB-231 breast carcinoma (CRL-12532, RRID:CVCL_0062), NCI-H1876 small cell lung carcinoma (CRL-5902, RRID:CVCL_1503), NCI-H510A small cell lung carcinoma (HTB-184, RRID:CVCL_1565), NCI-H1417 (CRL-5869, RRID:CVCL_1469), and NCI-H196 small cell lung carcinoma (CRL-5823, RRID:CVCL_1509). Dr. Peter Houghton (Greehey Children's Cancer Research Institute, University of Texas Health Science Center, San Antonio, TX) provided Rh-18 rhabdomyosarcoma (RRID:CVCL_1659). Pooled donor human umbilical vein endothelial cells (HUVEC, Lonza, cat. CC-2519) and human mesenchymal stem cells (hMSC, Lonza, cat. PT-2501) were purchased from Lonza (Walkersville, MD).
Cell Culture. […]
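Note: spheroids exposed to compounds for 7 days.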

SMILES: C#Cc1c(F)ccc2cc(O)cc(-c3ncc4c(N5CC6CCC(C5)N6)nc(OCC56CCCN5CC(F)C6)nc4c3F)c12 (configuration not stated) + CNC(C)C(=O)NC1CN(S(=O)(=O)c2cccc(S(=O)(=O)N3CCC4CCC(C(=O)NC(c5ccccc5)c5ccccc5)N4C(=O)C(NC(=O)C(C)NC)C3)c2)CCC2CCC(C(=O)NC(c3ccccc3)c3ccccc3)N2C1=O
- IC50 (second compound 0.00316 µM): > 10 µM
- IC50 (second compound 0.01 µM): > 10 µM
- IC50 (second compound 0.0316 µM): > 10 µM
- IC50 (second compound 0.1 µM): > 10 µM
- IC50 (second compound 0.316 µM): > 10 µM
- IC50 (second compound 1 µM): > 10 µM
- viability, T/C (second compound 0.00316 µM, first compound 0.0316 µM): 93.7%
- viability, T/C (second compound 0.00316 µM, first compound 0.1 µM): 89.4%
- viability, T/C (second compound 0.00316 µM, first compound 0.316 µM): 87.3%
- viability, T/C (second compound 0.00316 µM, first compound 1 µM): 105%
- viability, T/C (second compound 0.00316 µM, first compound 3.16 µM): 94.6%
- viability, T/C (second compound 0.00316 µM, first compound 10 µM): 81.8%
- viability, T/C (second compound 0.01 µM, first compound 0.0316 µM): 99.4%
- viability, T/C (second compound 0.01 µM, first compound 0.1 µM): 106%
- viability, T/C (second compound 0.01 µM, first compound 0.316 µM): 86.7%
- viability, T/C (second compound 0.01 µM, first compound 1 µM): 92.9%
- viability, T/C (second compound 0.01 µM, first compound 3.16 µM): 97.1%
- viability, T/C (second compound 0.01 µM, first compound 10 µM): 64.4%
- viability, T/C (second compound 0.0316 µM, first compound 0.0316 µM): 90.2%
- viability, T/C (second compound 0.0316 µM, first compound 0.1 µM): 87.1%
- viability, T/C (second compound 0.0316 µM, first compound 0.316 µM): 99.6%
- viability, T/C (second compound 0.0316 µM, first compound 1 µM): 102%
- viability, T/C (second compound 0.0316 µM, first compound 3.16 µM): 90.6%
- viability, T/C (second compound 0.0316 µM, first compound 10 µM): 61.1%
- viability, T/C (second compound 0.1 µM, first compound 0.0316 µM): 91.5%
- viability, T/C (second compound 0.1 µM, first compound 0.1 µM): 70.6%
- viability, T/C (second compound 0.1 µM, first compound 0.316 µM): 83.5%
- viability, T/C (second compound 0.1 µM, first compound 1 µM): 80%
- viability, T/C (second compound 0.1 µM, first compound 3.16 µM): 84%
- viability, T/C (second compound 0.1 µM, first compound 10 µM): 72.3%
- viability, T/C (second compound 0.316 µM, first compound 0.0316 µM): 80.3%
- viability, T/C (second compound 0.316 µM, first compound 0.1 µM): 82.8%
- viability, T/C (second compound 0.316 µM, first compound 0.316 µM): 91.2%
- viability, T/C (second compound 0.316 µM, first compound 1 µM): 94.8%
- viability, T/C (second compound 0.316 µM, first compound 3.16 µM): 78.7%
- viability, T/C (second compound 0.316 µM, first compound 10 µM): 62.5%
- viability, T/C (second compound 1 µM, first compound 0.0316 µM): 74.7%
- viability, T/C (second compound 1 µM, first compound 0.1 µM): 74.5%
- viability, T/C (second compound 1 µM, first compound 0.316 µM): 81.2%
- viability, T/C (second compound 1 µM, first compound 1 µM): 92.6%
- viability, T/C (second compound 1 µM, first compound 3.16 µM): 83.3%
- viability, T/C (second compound 1 µM, first compound 10 µM): 58.7%

From PubChem BioAssay AID1963449 (Molecular Pharmacology Branch, DTP, NCI, 2024)
